In publication PMC4961696, “An Enantiomer of an Oral Small-Molecule TSH Receptor Agonist Exhibits Improved Pharmacologic Properties” (Frontiers in Endocrinology, 2016):

How the values were obtained:
TSH receptor (TSHR) [1] = biological target: T1, TSH receptor (TSHR) (Homo sapiens, UniProt P16473); test: cAMP production in HEK293 cells stably expressing TSHR (agonist dose-response); format: cell-based
TSH receptor (TSHR) [2] = biological target: T1, TSH receptor (TSHR); test: cAMP production in HEK293 cells stably expressing TSHR (agonist dose-response); inactive in HEK-LHR and HEK-FSHR cells; format: cell-based

T1 sequence (P16473 21-764): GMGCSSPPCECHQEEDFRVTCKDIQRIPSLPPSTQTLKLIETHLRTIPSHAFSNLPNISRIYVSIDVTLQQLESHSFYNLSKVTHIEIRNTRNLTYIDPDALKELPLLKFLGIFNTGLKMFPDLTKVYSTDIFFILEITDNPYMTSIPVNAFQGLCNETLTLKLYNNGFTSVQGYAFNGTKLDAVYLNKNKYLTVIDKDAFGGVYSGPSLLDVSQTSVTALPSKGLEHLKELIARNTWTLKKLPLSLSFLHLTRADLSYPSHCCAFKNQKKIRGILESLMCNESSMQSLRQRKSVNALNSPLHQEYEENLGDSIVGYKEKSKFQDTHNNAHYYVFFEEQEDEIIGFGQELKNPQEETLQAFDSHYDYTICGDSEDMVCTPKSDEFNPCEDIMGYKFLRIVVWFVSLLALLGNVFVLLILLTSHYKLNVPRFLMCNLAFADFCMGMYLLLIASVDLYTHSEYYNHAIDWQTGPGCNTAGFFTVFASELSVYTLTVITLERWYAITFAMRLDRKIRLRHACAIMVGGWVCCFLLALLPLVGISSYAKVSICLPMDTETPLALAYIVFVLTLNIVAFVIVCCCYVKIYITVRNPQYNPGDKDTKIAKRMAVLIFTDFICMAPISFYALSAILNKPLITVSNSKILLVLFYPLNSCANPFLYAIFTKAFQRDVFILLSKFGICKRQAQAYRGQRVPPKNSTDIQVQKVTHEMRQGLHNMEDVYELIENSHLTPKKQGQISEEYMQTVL

| Compound | EC50 (TSH receptor (TSHR) [1]) [µM] | EC50 (TSH receptor (TSHR) [2]) [µM] |
| --- | --- | --- |
| COc1ccc(C2Nc3cccc(O)c3C(=O)N2Cc2ccccc2)cc1COc1ccc(NC(C)=O)cc1 (racemic) [C2] | 0.046 |  |
| COc1ccc([C@H]2Nc3cccc(O)c3C(=O)N2Cc2ccccc2)cc1COc1ccc(NC(C)=O)cc1 [E2] |  | 0.018 |
| COc1ccc([C@@H]2Nc3cccc(O)c3C(=O)N2Cc2ccccc2)cc1COc1ccc(NC(C)=O)cc1 [E1] |  | 0.217 |
